ChEMBL document CHEMBL5325486, “Synthesis of novobiocin derivatives and evaluation of their antigonococcal activity and pharmacokinetics” (Bioorg Med Chem, 2023)
Values after ≈ are worked out from the molar mass of the structure shown.

Tests used:
Staphylococcus aureus = assay: Antibacterial activity against Staphylococcus aureus assessed inhibition of bacterial growth; type: functional
Neisseria gonorrhoeae = assay: Antibacterial activity against resistant Neisseria gonorrhoeae assessed inhibition of bacterial growth; type: functional
[1] = Aqueous solubility of compound in neutral JP2 solution; type: physicochemical; conditions: JP2 solution; read-out: solubility
[2] = Aqueous solubility of compound in acidic JP1 solution; type: physicochemical; conditions: JP1 solution; read-out: solubility

Compound	MIC50 (Staphylococcus aureus) [µg/mL]	MIC90 (Staphylococcus aureus) [µg/mL]	MIC50 (Neisseria gonorrhoeae) [µg/mL]	MIC90 (Neisseria gonorrhoeae) [µg/mL]	solubility [1] [µM]	solubility [2] [µM]
CO[C@@H]1[C@@H](OC(=O)NOCC(C)C)[C@@H](O)[C@H](Oc2ccc3c(O)c(NC(=O)c4ccc(O)c(CC=C(C)C)c4)c(=O)oc3c2C)OC1(C)C	0.5 (≈ 0.73 µM)	1 (≈ 1.46 µM)	4 (≈ 5.84 µM)	16 (≈ 23.4 µM)		
CC[C@H]1OC(=O)[C@H](C)[C@@H](O[C@H]2C[C@@](C)(OC)[C@@H](O)[C@H](C)O2)[C@H](C)[C@@H](O[C@@H]2O[C@H](C)C[C@H](N(C)C)[C@H]2O)[C@](C)(O)C[C@@H](C)CN(C)[C@H](C)[C@@H](O)[C@]1(C)O [AZITHROMYCIN]	> 128	> 128	0.25 (≈ 0.334 µM)	8 (≈ 10.7 µM)		
CO[C@@H]1[C@@H](OC(=O)c2ccc(C)[nH]2)[C@@H](O)[C@H](Oc2ccc3c(O)c(NC(=O)CCN(C)C)c(=O)oc3c2C)OC1(C)C	2 (≈ 3.4 µM)	4 (≈ 6.81 µM)	16 (≈ 27.2 µM)	32 (≈ 54.5 µM)	> 100	> 100
CO[C@@H]1[C@@H](OC(=O)c2ccc(C)[nH]2)[C@@H](O)[C@H](Oc2ccc3c(O)c(NC(=O)c4cscn4)c(=O)oc3c2C)OC1(C)C	0.5 (≈ 0.834 µM)	0.5 (≈ 0.834 µM)	0.5 (≈ 0.834 µM)	0.5 (≈ 0.834 µM)		
CO[C@@H]1[C@@H](OC(=O)c2ccc(C)[nH]2)[C@@H](O)[C@H](Oc2ccc3c(O)c(NC(=O)c4cn(Cc5cccc(C(F)(F)F)c5)cn4)c(=O)oc3c2C)OC1(C)C	0.125 (≈ 0.169 µM)	0.25 (≈ 0.338 µM)	0.25 (≈ 0.338 µM)	0.5 (≈ 0.675 µM)		
CO[C@@H]1[C@@H](OC(=O)c2ccc[nH]2)[C@@H](O)[C@H](Oc2ccc3c(O)c(NC(=O)c4ccc(O)c(CC=C(C)C)c4)c(=O)oc3c2C)OC1(C)C	0.125 (≈ 0.189 µM)	0.25 (≈ 0.377 µM)	0.5 (≈ 0.754 µM)	1 (≈ 1.51 µM)		
C#CCCNC(=O)O[C@H]1[C@@H](O)[C@H](Oc2ccc3c(O)c(NC(=O)c4ccc(O)c(CC=C(C)C)c4)c(=O)oc3c2C)OC(C)(C)[C@@H]1OC	0.5 (≈ 0.752 µM)	0.5 (≈ 0.752 µM)	16 (≈ 24.1 µM)	32 (≈ 48.1 µM)		
CO[C@@H]1[C@@H](OC(N)=O)[C@@H](O)[C@H](Oc2ccc3c(O)c(NC(=O)c4ccc(O)c(CC=C(C)C)c4)c(=O)oc3c2C)OC1(C)C [NOVOBIOCIN]	0.25 (≈ 0.408 µM)	0.25 (≈ 0.408 µM)	1 (≈ 1.63 µM)	2 (≈ 3.26 µM)		
CO[C@@H]1[C@@H](OC(=O)c2ccc(C)[nH]2)[C@@H](O)[C@H](Oc2ccc3c(O)c(NC(=O)c4cncn4C)c(=O)oc3c2C)OC1(C)C	0.5 (≈ 0.838 µM)	0.5 (≈ 0.838 µM)	0.5 (≈ 0.838 µM)	1 (≈ 1.68 µM)		
CO[C@@H]1[C@@H](OC(=O)c2ccc(C)[nH]2)[C@@H](O)[C@H](Oc2ccc3c(O)c(NC(=O)c4csc(C)n4)c(=O)oc3c2C)OC1(C)C	0.25 (≈ 0.407 µM)	0.25 (≈ 0.407 µM)	0.25 (≈ 0.407 µM)	0.5 (≈ 0.815 µM)		
CO[C@@H]1[C@@H](OC(=O)c2cc(Cl)c(C)[nH]2)[C@@H](O)[C@H](Oc2ccc3c(O)c(NC(=O)c4ccc(O)c(CC=C(C)C)c4)c(=O)oc3c2C)OC1(C)C	0.063 (≈ 0.0886 µM)	0.125 (≈ 0.176 µM)	0.5 (≈ 0.703 µM)	1 (≈ 1.41 µM)		
CO[C@@H]1[C@@H](OC(=O)c2ccc(C)[nH]2)[C@@H](O)[C@H](Oc2ccc3c(O)c(NC(=O)c4ccccc4)c(=O)oc3c2C)OC1(C)C	0.063 (≈ 0.106 µM)	0.125 (≈ 0.211 µM)	1 (≈ 1.69 µM)	1 (≈ 1.69 µM)		
CO[C@@H]1[C@@H](OC(=O)c2ccc(C)[nH]2)[C@@H](O)[C@H](Oc2ccc3c(O)c(NC(=O)c4cccc(N5CCN(C)CC5)c4)c(=O)oc3c2C)OC1(C)C	0.5 (≈ 0.724 µM)	0.5 (≈ 0.724 µM)	1 (≈ 1.45 µM)	1 (≈ 1.45 µM)		
CO[C@@H]1[C@@H](OC(=O)c2ccc(C)[nH]2)[C@@H](O)[C@H](Oc2ccc3c(O)c(NC(=O)c4c[nH]cn4)c(=O)oc3c2C)OC1(C)C	1 (≈ 1.72 µM)	1 (≈ 1.72 µM)	1 (≈ 1.72 µM)	1 (≈ 1.72 µM)		
CO[C@@H]1[C@@H](OC(=O)NOC(C)(C)C)[C@@H](O)[C@H](Oc2ccc3c(O)c(NC(=O)c4ccc(O)c(CC=C(C)C)c4)c(=O)oc3c2C)OC1(C)C	1 (≈ 1.46 µM)	1 (≈ 1.46 µM)	16 (≈ 23.4 µM)	64 (≈ 93.5 µM)		
CCc1cc(C(=O)Nc2c(O)c3ccc(O[C@@H]4OC(C)(C)[C@H](OC)[C@@H](OC(=O)c5ccc(C)[nH]5)[C@H]4O)c(C)c3oc2=O)ccn1	0.5 (≈ 0.804 µM)	1 (≈ 1.61 µM)	0.5 (≈ 0.804 µM)	1 (≈ 1.61 µM)		
CO[C@@H]1[C@@H](OC(=O)c2ccc(C)[nH]2)[C@@H](O)[C@H](Oc2ccc3c(O)c(NC(=O)c4cn(C)c(CCC(C)C)n4)c(=O)oc3c2C)OC1(C)C	0.25 (≈ 0.375 µM)	0.25 (≈ 0.375 µM)	0.5 (≈ 0.75 µM)	1 (≈ 1.5 µM)		
CO[C@@H]1[C@@H](OC(=O)c2ccc(C)[nH]2)[C@@H](O)[C@H](Oc2ccc3c(O)c(NC(=O)c4ccnc(Oc5cccnc5)c4)c(=O)oc3c2C)OC1(C)C	0.5 (≈ 0.728 µM)	1 (≈ 1.46 µM)	0.5 (≈ 0.728 µM)	1 (≈ 1.46 µM)		
CO[C@@H]1[C@@H](OC(=O)c2ccc(C)[nH]2)[C@@H](O)[C@H](Oc2ccc3c(O)c(NC(=O)c4cn(CC5CC5)cn4)c(=O)oc3c2C)OC1(C)C	0.5 (≈ 0.785 µM)	0.5 (≈ 0.785 µM)	0.5 (≈ 0.785 µM)	1 (≈ 1.57 µM)		
